For data set [1], the target named is T1, hERG potassium channel (Homo sapiens, UniProt Q12809).
T1 construct: Eurofins
The experiment in a line: hERG channel binding assay ([3H]dofetilide displacement). Particulars: for inhibition at 10 µM: human, probe [3H]dofetilide. The protocol:
The evaluation of the binding of the compounds to the human hERG potassium channel was carried out as described previously (Eurofins).
Since the blocking of the human potassium channel hERG channel may be responsible for cardiac fibrillation leading to cardiac arrest and death of the patient, the binding of the 3 molecules SG6163F, VP331 and LOPA87 to this receptor was evaluated.
For orientation: hERG is a cardiac potassium channel; its block is linked to QT prolongation.

The test system of data set [2] is RNVCs. The experiment in a line: Mitochondrial ROS production with MitoSOX fluorescent probe. It counts as cell-based, rat. Particulars: 1 μM, 6 h. As for the experimental part: FIG. 12: The RNVCs were treated with 0.1% DMSO, 3 μM rapamycin, 1 μM digitoxigenin, 1 μM digoxin, 1 μM minaprin, 1 μM VP331, 1 μM LOPA87, 10 μM SG6163F for 6 h, then the ROS production was stained with the MitoSOX fluorescent probe.
The RNVCs were treated with 0.01% DMSO, 3 μM rapamycin, […], 1 μM digoxin, 1 μM minaprine, 1 μM VP331, 1 μM LOPA87, 10 μM SG6163F in a serum-free cell culture medium for 6 hours. The contents (50 μg) of a MitoSOX™ mitochondrial superoxide indicator vial (ThermoFisher, M36008) were dissolved in 13 μl dimethyl sulfoxide (DMSO) to prepare a 5 mM MitoSOX™ reagent stock solution. Next, the 5 mM MitoSOX™ reagent stock solution in PBS was diluted to prepare a 5 μM working solution of MitoSOX™ reagent. After treatment, the cells were rinsed twice with hot PBS and then incubated with a MitoSOX reagent working solution for 10 minutes at 37° C. The cells were gently rinsed three times with hot PBS. Red fluorescence was detected with a Leica confocal microscope. Nuclear fluorescence was suppressed and mitochondrial fluorescence intensity was measured using ImageJ software.
ROSs are produced or accumulated as a by-product of mitochondrial activity metabolism. Thus, the ROSs may be a consequence of mitochondrial function or may reflect a defect in the mitochondrial antioxidant system.

For data set [3], the system named is H9C2 cells. In words: Exogenous fatty acid oxidation (XF palmitate-BSA FAO substrate with mito stress test). Particulars: fatty acids as substrate. It counts as cell-based, rat. The protocol:
FIG. 8C: the oxidation of the exogenous fatty acids was measured simultaneously using the XF palmitate-BSA FAO substrate kit with the mito stress test on XF cells. Before starting the test, 30 μL of XF palmitate-BSA CAM or BSA control substrate were added to the appropriate wells.
The XFe96 extracellular flow analyzer (Seahorse Biosciences, North Billerica, MA, USA) was used to measure the bioenergetic function of H9C2 cardiomyocytes. The H9C2 cells were seeded at 20 000 cells per well in XF96 cell culture microplates; all the pretreatments were carried out with serum-free cell culture medium. The Agilent Seahorse XF glycolysis stress test was performed to measure glycolytic function in the H9C2 cells; the extracellular acidification rate (ECAR) was measured sequentially by 3 injections, 10 mM glucose, 2 μM oligomycin and 50 mM 2-deoxy-D-glucose (2-DG). The Agilent Seahorse XF Cell Mito stress test measured key parameters of mitochondrial function by directly measuring the oxygen consumption rate (OCR) of the H9C2 cells. […] The oxidation of the exogenous fatty acids was measured simultaneously using the XF palmitate-BSA FAO substrate kit with the mitochondrial stress test on XF cells. […]
Next, the energy metabolism was analyzed in real time using the Seahorse technology in H9C2 cells.

Data on three molecules can be found in patent US20240226066A1, “CARDIOPROTECTION BY AUTOPHAGY INDUCTION AND METABOLIC REPROGRAMMING” (UNIVERSITE PARIS-SACLAY, priority 2021, published 2024).

Like-named read-outs stand apart in the source and are kept apart here.

T1 sequence (Q12809 whole entry): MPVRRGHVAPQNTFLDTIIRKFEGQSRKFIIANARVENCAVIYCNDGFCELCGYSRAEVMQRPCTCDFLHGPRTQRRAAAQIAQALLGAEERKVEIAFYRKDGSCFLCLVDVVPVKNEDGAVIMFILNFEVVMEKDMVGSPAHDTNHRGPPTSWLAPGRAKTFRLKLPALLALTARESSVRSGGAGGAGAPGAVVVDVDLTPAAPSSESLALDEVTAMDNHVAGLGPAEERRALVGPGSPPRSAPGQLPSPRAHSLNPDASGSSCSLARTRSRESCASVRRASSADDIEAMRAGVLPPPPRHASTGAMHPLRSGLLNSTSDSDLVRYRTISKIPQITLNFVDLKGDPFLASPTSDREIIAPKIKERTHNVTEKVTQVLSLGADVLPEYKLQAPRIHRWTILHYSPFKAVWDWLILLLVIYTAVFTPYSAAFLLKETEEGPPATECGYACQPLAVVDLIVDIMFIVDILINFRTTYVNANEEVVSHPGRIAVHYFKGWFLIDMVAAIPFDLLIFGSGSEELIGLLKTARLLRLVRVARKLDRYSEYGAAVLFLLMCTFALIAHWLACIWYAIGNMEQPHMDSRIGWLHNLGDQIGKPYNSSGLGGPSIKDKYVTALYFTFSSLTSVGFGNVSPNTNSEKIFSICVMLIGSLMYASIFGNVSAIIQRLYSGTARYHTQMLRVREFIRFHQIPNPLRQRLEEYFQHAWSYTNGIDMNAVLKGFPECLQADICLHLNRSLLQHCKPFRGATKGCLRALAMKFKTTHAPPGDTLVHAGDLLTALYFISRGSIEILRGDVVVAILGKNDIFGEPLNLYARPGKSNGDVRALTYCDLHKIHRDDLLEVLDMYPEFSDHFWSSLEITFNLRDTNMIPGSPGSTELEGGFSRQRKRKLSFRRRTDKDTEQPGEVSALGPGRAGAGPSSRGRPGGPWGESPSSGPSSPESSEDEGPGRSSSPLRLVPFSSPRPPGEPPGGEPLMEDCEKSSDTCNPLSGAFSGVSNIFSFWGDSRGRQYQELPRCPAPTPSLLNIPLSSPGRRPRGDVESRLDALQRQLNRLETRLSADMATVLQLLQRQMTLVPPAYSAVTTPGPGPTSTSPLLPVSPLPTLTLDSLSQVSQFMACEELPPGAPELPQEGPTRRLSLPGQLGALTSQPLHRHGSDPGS

As for `O=C1NC(c2ccccc2)=N/C1=C\c1cc2ccccc2c2ccccc12` [SG6163F], the inhibition at 10 µM in data set [1] (inhibition of tritiated dofetilide binding, only values >50% considered effective, read-out: % inhibit 1st assay) was determined as 40.5%; in data set [1] (inhibition of tritiated dofetilide binding, only values >50% considered effective, read-out: % inhibit 2nd assay) it was 36.6%; in data set [1] (mean of two independent measurements, read-out: % inhibit Mean), 38.5%. In data set [1] (inhibition of specific binding of [3H]dofetilide in vitro), the “binding to the hERG channel” value is recorded as “negligible”.
With `C[C@]12CC[C@H](O)C[C@H]1CC[C@@H]1[C@@H]2CC[C@]2(C)[C@@H](C3=CC(=O)OC3)CC[C@]12O` [digitoxigenin], the “local level of mitochondrial superoxide anion” value in data set [2] is “induced an elevation”.
As to `C[C@H]1O[C@@H](O[C@H]2[C@@H](O)C[C@H](O[C@H]3[C@@H](O)CC(O[C@H]4CC[C@@]5(C)[C@H](CC[C@@H]6[C@@H]5C[C@@H](O)[C@]5(C)[C@@H](C7=CC(=O)OC7)CC[C@]65O)C4)O[C@@H]3C)O[C@@H]2C)C[C@H](O)[C@@H]1O` (stereo partly drawn) [digoxin], in data set [3], the oxidative phosphorylation entry is listed as “improved oxidative phosphorylation”.
